Patent publication US20240343713A1, “TELOMERASE INHIBITOR COMPOUNDS” (Geron Corporation, priority 2023, published 2024)

How the values were obtained:
[1] = for deaths after first dose reduction: 25 mg/Kg (Compound 1, Compound 2) or 10 mg/Kg (Compound 3) PO on Day-10 and Day-12, deaths Day 11-13; for animals lost due to overdose early in the study: initial dosing 50 mg/Kg then 25 or 10 mg/Kg PO, 7 animals per group
Method: 7.1 Body Weight. The body weight data of NOD-SCID mice used for this study involving different treatment groups (Vehicle Control, 10 mg/Kg of the three treatment groups and 50 mg/Kg of the reference standard) was monitored every alternate day.

LUC-MOLM13 cell line = conditions: for leukemia cell burden / tumor load by bioluminescence imaging (BLI), overall: male NOD-SCID mice, LUC-MOLM13 i.v., PO alternate days, test compounds finally 10 mg/Kg, BIBR-1532 50 mg/Kg, up to Day 28, vs vehicle control
Method: Screening of anticancer activity of compounds in an efficacy model using Luc-MOLM13 cell line
The efficacy study was conducted to assess the tumor regression of Compound 1, Compound 2, and Compound 3 shown below in male NOD-SCID mice using LUC-MOLM13 cell line. Individual animals were assigned identification markings on the ear.
Each mouse was intravenously injected with 1 million LUC-MOLM13 tumor cells in a total volume of 0.1 mL in DPBS and this would be considered as Day 0. Luciferin (150 mg/Kg body weight) was planned to be injected (JP) 5 mins before imaging and sequential 1-2 images of mice were planned every 1 minute. The animals were planned to be dosed with test compounds from Day 10 onwards by oral route at doses of 50 mg/Kg every alternate day.
The efficacy study was conducted to assess the inhibitory effect of Compound 1, Compound 3 and Compound 2 on leukemia cell expansion in male NOD-SCID mice using LUC-MOLM13 cell line.
1 million of LUC-MOLM13 cells/100 μL were suspended in DPBS and were inoculated per mouse via intravenous route in the lateral tail vein in NOD SCID male mice (Fed animals) of 6 to 8 weeks old after 7 days of acclimatization. This was considered as Day-0 of the study.
Luciferin (150 mg/Kg body weight) was injected (IP) 5 mins before imaging and sequential 1-2 images of mice were taken every 1 minute.
Bioluminescence imaging for tumor evaluation was done on Days 0, 5, 10, 15, 18, 21 and 28 respectively along with regular body weight monitoring. The following observations were monitored at regular intervals: body weight (% body weight loss), frequencies of leukemic cells (LUC-MOLM13) in hematopoietic organs and non-lymphoid tissues using imaging on an IVIS spectrum imager for tumor burden evaluation.
Other observations included any clinical signs/observations upon dosing. […] A range of tissues were collected including brain, axillary lymph node, eyes, branchial lymph node, lungs, heart, stomach, liver, kidney, spleen, cervical lymph node, mesenteric lymph node, inguinal lymph node, GI tract and male reproductive organ. Growth kinetics of Luc-MOLM13 cells was monitored based on BLI along with survival curve.
Initial plan was to dose from Day 10 onwards by oral route at doses of 50 mg/Kg every alternate day; however, we initiated the dosing from Day-8 onwards based on few reports [7, 8]. […] BIBR-1532 dosing was maintained at 50 mg/Kg every alternate day. […] Dosing was stopped for the next 4 days for all test compounds and BIBR-1532 considering the animal health condition. […]
The data for bioluminescence imaging levels (BLI (Avg Radiance) was captured from the instrument across the individual groups for the ROI (region of interest (ROI) and the average radiance was calculated to understand the levels as compared to vehicle control (Group 3).

| Structure (SMILES) | deaths after first dose reduction [1] | animals lost due to overdose early in the study [1] | overall animal health ([1]; LUC-MOLM13 tumor-bearing NOD-SCID mice, test compounds 10 mg/Kg, BIBR-1532 50 mg/Kg PO) | bioluminescence (average radiance) on Day 21 (LUC-MOLM13 cell line; Day 21, test compounds 10 mg/Kg, BIBR-1532 50 mg/Kg PO) | survival curve / deaths (LUC-MOLM13 cell line; after dose reduction, test compounds 10 mg/Kg, BIBR-1532 50 mg/Kg PO alternate days, until Day 34) | leukemia cell burden / tumor load by bioluminescence imaging (BLI), overall (LUC-MOLM13 cell line) | loss of animals after the first dose ([1]; mouse, in vivo) |
| --- | --- | --- | --- | --- | --- | --- | --- |
| C=C1CC(c2ccc(Cl)cc2-c2cn[nH]c2)OC1=O (stereo not shown) [Compound 1] | one animal each on Day 12 and Day-13 | two |  |  |  |  |  |
| C/C(=C\C(=O)Nc1ccccc1C(=O)O)c1ccc2ccccc2c1 [BIBR-1532, reference compound] |  |  | deteriorated | signal was enhanced | one death on Day 31 and another on Day 34 | repressed as the days progressed |  |
| C=C1C(=O)OC(c2ccc(Cl)cc2-c2cnn(C)c2)C1O (stereo not shown) [Compound 3] | 1 | two |  |  |  | comparable impact on leukemia cell reduction to that of BIBR-1532, albeit at a lower dosage | one |
